Laboratory results taken from PubChem BioAssay (NCI).
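Cultured in 96-well plates, cells were exposed to test compound for 48 hours across five concentrations. GI50: concentration for 50% inhibition of growth. The concentration for full growth arrest is given as TGI.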

Assays:
Assay in all cases: inhibition of tumour cell growth, NCI panel, 48 h
NCI-H460 lung = system: NCI-H460 lung
UACC-257 melanoma = system: UACC-257 melanoma
OVCAR-3 ovarian = system: OVCAR-3 ovarian
OVCAR-4 ovarian = system: OVCAR-4 ovarian
NCI-H23 lung = system: NCI-H23 lung
SK-OV-3 ovarian = system: SK-OV-3 ovarian
MALME-3M melanoma = system: MALME-3M melanoma
MCF7 breast = system: MCF7 breast
IGROV1 ovarian = system: IGROV1 ovarian
TK-10 renal = system: TK-10 renal
SN12C renal = system: SN12C renal
SK-MEL-5 melanoma = system: SK-MEL-5 melanoma
SF-295 CNS = system: SF-295 CNS
SR leukemia = system: SR leukemia
PC-3 prostate = system: PC-3 prostate
MDA-N = system: MDA-N
NCI-H522 lung = system: NCI-H522 lung

Work on `CC1(C)CCc2c(ccc(C(=O)/C=C/c3ccc(O)cc3)c2O)O1` yielded a TGI (NCI-H460 lung) of 22.2 µM, a TGI (UACC-257 melanoma) of 23.4 µM and a TGI (OVCAR-3 ovarian) of 18.3 µM. The TGI (OVCAR-4 ovarian) was 19.6 µM, the TGI (NCI-H23 lung) was 22.7 µM and the TGI (SK-OV-3 ovarian) was 74.6 µM. For the same compound, the TGI (MALME-3M melanoma) was 16.3 µM, the TGI (MCF7 breast) was 29.4 µM and the TGI (IGROV1 ovarian) was 19.9 µM. The TGI (TK-10 renal) was 20 µM, the TGI (SN12C renal) was 20.7 µM and the TGI (SK-MEL-5 melanoma) was 22 µM. It also gave a TGI (SF-295 CNS) of 26.1 µM, a TGI (SR leukemia) of 30.5 µM and a TGI (PC-3 prostate) of 17.8 µM.
For `COC1OC2COC(c3ccccc3)OC2C(O)C1OC(=S)c1ccccc1` (stereo not given), the TGI (NCI-H460 lung) was > 100 µM, the TGI (UACC-257 melanoma) was > 100 µM and the TGI (OVCAR-3 ovarian) was > 100 µM. The TGI (OVCAR-4 ovarian) was > 100 µM, the TGI (NCI-H23 lung) was > 100 µM and the TGI (MDA-N) was 80.9 µM. For the same compound, the TGI (SK-OV-3 ovarian) was > 100 µM, the TGI (MALME-3M melanoma) was 71.6 µM and the TGI (MCF7 breast) was > 100 µM. The TGI (IGROV1 ovarian) was > 100 µM, the TGI (TK-10 renal) was > 100 µM and the TGI (SN12C renal) was 48.4 µM. The TGI (SK-MEL-5 melanoma) was 61.3 µM, the TGI (SF-295 CNS) was > 100 µM and the TGI (SR leukemia) was 85.5 µM. For the same compound, the TGI (PC-3 prostate) was 57.2 µM.
With `C/C1=C\[C@H](C)C[C@H](C)OC(=O)[C@H](C)NC(=O)[C@@H](Cc2ccc(O)c(Br)c2)N(C)C(=O)[C@H](C)NC(=O)[C@@H](C)C1` the TGI (NCI-H460 lung) was > 19.5 µM, the TGI (UACC-257 melanoma) was 14.8 µM and the TGI (OVCAR-3 ovarian) was 3.84 µM. For the same compound, the TGI (OVCAR-4 ovarian) was 1.92 µM, the TGI (NCI-H522 lung) was 1.35 µM and the TGI (NCI-H23 lung) was > 25 µM. For the same compound, the TGI (MDA-N) was > 25 µM, the TGI (SK-OV-3 ovarian) was 2.04 µM and the TGI (MALME-3M melanoma) was 2.32 µM. The TGI (MCF7 breast) was > 25 µM, the TGI (IGROV1 ovarian) was 0.105 µM and the TGI (TK-10 renal) was 0.269 µM. The TGI (SN12C renal) was > 25 µM, the TGI (SK-MEL-5 melanoma) was 0.315 µM and the TGI (SF-295 CNS) was 4.9 µM. The TGI (PC-3 prostate) was 24.6 µM.
`O=C1N(Cc2ccccc2)C2CSCC2N1Cc1ccccc1` (stereo not given) showed a TGI (NCI-H460 lung) of 55.8 µM, a TGI (UACC-257 melanoma) of 69.3 µM and a TGI (OVCAR-3 ovarian) of 43.9 µM. The TGI (OVCAR-4 ovarian) was > 100 µM, the TGI (NCI-H522 lung) was 24.2 µM and the TGI (NCI-H23 lung) was 85 µM. The TGI (MDA-N) was 80 µM, the TGI (SK-OV-3 ovarian) was > 100 µM and the TGI (MALME-3M melanoma) was 46.3 µM. The TGI (MCF7 breast) was > 100 µM, the TGI (IGROV1 ovarian) was > 100 µM and the TGI (TK-10 renal) was 85.9 µM. For the same compound, the TGI (SN12C renal) was > 100 µM, the TGI (SK-MEL-5 melanoma) was 30.3 µM and the TGI (SF-295 CNS) was > 100 µM. For the same compound, the TGI (SR leukemia) was 93.6 µM and the TGI (PC-3 prostate) was > 100 µM.
Compound `C[C@@H]1CC[C@H]2[C@H]1[C@H]1[C@@H](CC[C@]2(C)N=C=S)C1(C)C` has a TGI (NCI-H460 lung) of 47.3 µM, a TGI (UACC-257 melanoma) of 67.4 µM and a TGI (OVCAR-3 ovarian) of 42.9 µM. For the same compound, the TGI (OVCAR-4 ovarian) was > 100 µM, the TGI (NCI-H23 lung) was 94.3 µM and the TGI (MDA-N) was 23.4 µM. For the same compound, the TGI (SK-OV-3 ovarian) was > 100 µM, the TGI (MALME-3M melanoma) was 52.8 µM and the TGI (MCF7 breast) was 34 µM. The TGI (IGROV1 ovarian) was > 100 µM, the TGI (TK-10 renal) was > 100 µM and the TGI (SN12C renal) was 44.7 µM. For the same compound, the TGI (SK-MEL-5 melanoma) was 31.8 µM, the TGI (SF-295 CNS) was 46.9 µM and the TGI (SR leukemia) was 47 µM. The TGI (PC-3 prostate) was > 100 µM.
`COc1ccc(N2C(=O)C3c4[nH]c5cc(C)ccc5c4C4CCC(C(C)(C)C)CC4C3C2=O)cc1` (stereo not given) was tested, and the TGI (NCI-H460 lung) was > 10 µM, the TGI (OVCAR-3 ovarian) was > 10 µM and the TGI (OVCAR-4 ovarian) was > 10 µM. For the same compound, the TGI (NCI-H522 lung) was > 10 µM, the TGI (NCI-H23 lung) was > 10 µM and the TGI (MDA-N) was > 10 µM. For the same compound, the TGI (SK-OV-3 ovarian) was > 10 µM, the TGI (MALME-3M melanoma) was > 10 µM and the TGI (MCF7 breast) was > 10 µM. The TGI (IGROV1 ovarian) was > 10 µM, the TGI (TK-10 renal) was > 10 µM and the TGI (SN12C renal) was > 10 µM. For the same compound, the TGI (SK-MEL-5 melanoma) was > 10 µM, the TGI (SF-295 CNS) was > 10 µM and the TGI (SR leukemia) was > 10 µM. The TGI (PC-3 prostate) was > 10 µM.
In the case of `C=CC1(C)CC(=O)C2(O)C(C)(O1)C(OC(C)=O)C(O)C1C(C)(C)CCC(O)C12C` (stereo not given), the TGI (NCI-H460 lung) is reported as > 150 µM, the TGI (UACC-257 melanoma) is reported as > 150 µM and the TGI (OVCAR-3 ovarian) is reported as > 150 µM. For the same compound, the TGI (OVCAR-4 ovarian) was > 122 µM, the TGI (NCI-H522 lung) was > 150 µM and the TGI (NCI-H23 lung) was > 150 µM. The TGI (SK-OV-3 ovarian) was > 120 µM, the TGI (MALME-3M melanoma) was > 150 µM and the TGI (MCF7 breast) was > 115 µM. For the same compound, the GI50 (IGROV1 ovarian) was > 77.2 µM, the TGI (IGROV1 ovarian) was > 121 µM and the TGI (TK-10 renal) was > 34.6 µM. For the same compound, the GI50 (SN12C renal) was > 49 µM, the TGI (SN12C renal) was > 102 µM and the TGI (SK-MEL-5 melanoma) was > 102 µM. For the same compound, the TGI (SF-295 CNS) was > 150 µM.
`OC(C#CCN1CCCC1)(c1ccccc1)c1ccccc1Cl` (stereo not given) was tested, and the TGI (NCI-H460 lung) was 41.5 µM, the TGI (UACC-257 melanoma) was 40.3 µM and the TGI (OVCAR-3 ovarian) was > 100 µM. The TGI (OVCAR-4 ovarian) was 80.7 µM, the TGI (NCI-H522 lung) was 41.6 µM and the TGI (NCI-H23 lung) was > 100 µM. The TGI (MDA-N) was 50.9 µM, the TGI (SK-OV-3 ovarian) was > 100 µM and the TGI (MCF7 breast) was 32.9 µM. For the same compound, the TGI (IGROV1 ovarian) was 73.6 µM, the TGI (TK-10 renal) was > 100 µM and the TGI (SN12C renal) was > 100 µM. For the same compound, the TGI (SK-MEL-5 melanoma) was 31.5 µM, the TGI (SF-295 CNS) was 45.8 µM and the TGI (SR leukemia) was > 100 µM. It also gave a TGI (PC-3 prostate) of 80.2 µM.
For `COc1ccc2oc(=N)c(C(=O)Nc3ccccc3)cc2c1`, the TGI (NCI-H460 lung) was > 100 µM, the TGI (UACC-257 melanoma) was > 100 µM and the TGI (OVCAR-3 ovarian) was > 100 µM. For the same compound, the TGI (OVCAR-4 ovarian) was > 100 µM, the TGI (NCI-H522 lung) was 6.4 µM and the TGI (NCI-H23 lung) was 51.8 µM. The TGI (MDA-N) was 48.4 µM, the TGI (SK-OV-3 ovarian) was 39.7 µM and the TGI (MALME-3M melanoma) was 53.2 µM. For the same compound, the TGI (MCF7 breast) was 33.2 µM, the TGI (IGROV1 ovarian) was 97.4 µM and the TGI (TK-10 renal) was > 100 µM. The TGI (SN12C renal) was > 100 µM, the TGI (SK-MEL-5 melanoma) was > 100 µM and the TGI (SF-295 CNS) was 43.9 µM. For the same compound, the TGI (SR leukemia) was > 100 µM and the TGI (PC-3 prostate) was > 100 µM.
